Several values for one entry are separate records, joined by “and”; a condition that tells them apart may be missing. Equal values may be shown once.
Legend:
[1] = Biodistribution test and radiation absorption dose (MIRD method) in rats with liver tumors; type: in vivo; details: for Radiation absorption dose, Intestine / Radiation absorption dose, Kidney / Radiation absorption dose, Liver / Radiation absorption dose, Lung / Radiation absorption dose, Muscle / Radiation absorption dose, Spleen / Radiation absorption dose, Tumor: 0.45 mg/kg
Description: The hepatic artery was dissected from the hepatic tissue of the rats by surgery. A PE-10 tube was introduced into the hepatic artery, and the test solution containing neutron-irradiated arsenic trioxide as prepared in Example 1 was injected into the hepatic artery. The PE-10 tube was removed after injection, and a surgical thread was used to bind and fix the blood vessels, followed by suturing of the wound.
The test injection solution containing neutron-irradiated arsenic trioxide as prepared in Example 1 was injected into the tail vein using a syringe with needle no. 25.
A fixed amount of radioactive arsenic trioxide (radioactivity range: 2.77-3.25 mCi/ml, concentration: 1 mg/ml, animal injection dose: 0.45 mg/kg) prepared in Example 1 was injected into the rats with liver tumors through the hepatic artery and tail vein, respectively.
The rats were sacrificed by taking a large amount of blood from the heart at hours 2, 4, 16, 24 and 48, respectively, after injection, and the blood, hearts, lungs, livers, spleens, kidneys, intestines, bladders, muscles, and tumors were removed. These tissues or organs were placed in respective tubes, and their irradiation intensity was measured by a gamma counter (Wallac 1470 WIZARD) . The content percentage of arsenic trioxide per each gram of the tissue or organ was calculated using standard curve regression. There were two or three experimented rats in each experimental group.
Radioactive arsenic trioxide was injected respectively into the tail vein and hepatic artery of the rats by I.V. and I.H. The dosage was calculated using MIRD method, and the residence time in each of the organs and the tumors was calculated using Excel software. Finally, the radiation absorption dose in each of the organs or tissues and the tumors was calculated using MIROSE 3 software. Table 3. Radiation absorption dose in each of the organs or tissues and the tumors after injection of radioactive arsenic trioxide into the animals through the tail vein and hepatic artery, respectively, by I.V. and I.H.

N1-S1 rat hepatoma cells [2] = test: Therapeutic effect assessment: continuous tail vein injection, rats with liver tumors; type: in vivo, Spawn-Dawley rats; design: key to Response: Increase in size of tumor (In%) is classified as "Poor Response"; decrease in size of tumorwithin 0%∼40% is classified as "MildResponse"; decrease in size of tumor to 50% or more or disappearance of tumor is classified as "Good Response."; details: for Response / Survival time: 0.45 mg/kg tail vein, continued for two weeks, single animals; for Effect on the inhibition of tumor growth (in words): continuous tail vein injection; for Survival of the rats (in words): tail vein injection, week 8
Description: (§1) When cultured to 1.5x10^6 cell/ml, 4x10^6 cell/0.06ml of N1-S1 cells were sampled and then implanted into Spawn-Dawley male rats (5-week-old, 150g) between the liver and liver capsule by surgery, and the wounds were closed by sutures. Rearing of the rats was continued for ten days, and ultrasonic scanning was used to detect any growth of liver tumor and tumor size. After scanning, animals that had developed liver tumors were used to conduct the experiments of tumor growth inhibition, and euthanasia was practiced on the rest of the rats.
The rats with liver tumors were given normal saline, an injection solution containing arsenic trioxide without neutron irradiation treatment (concentration: 1 mg/ml; animal injection dosage: 0.45 mg/kg), and the injection solution prepared in Example 1 which contained radioactive arsenic trioxide having subjected to neutron irradiation treatment(radioactivity range: 2.77-3.25 mCi/ml; concentration: 1 mg/ml; and animal injection dosage: 0.45 mg/kg), respectively, via tail vein injection, and the injection was continued for two weeks.
(§2) Before injection, the size of the liver tumors was examined by ultrasonic scanning. Ultrasonic scanning was conducted in the first week, the second week, and the fifth week, respectively, after start of the injection so as to observe the change in size of the tumor. Finally, the rats were sacrificed for observing whether there was metastasis.

N1-S1 rat hepatoma cells [3] = test: Therapeutic effect assessment: hepatic artery single injection, rats with liver tumors; type: in vivo, Spawn-Dawley rats; details: for Therapeutic effect (in words): hepatic artery single injection
Description: as §1
The blood vessels of the hepatic artery were dissected from the hepatic tissue of the rats by surgery, and normal saline, an injection solution containing arsenic trioxide without neutron irradiation treatment (concentration: 1 mg/ml; and animal injection dosage: 0.45 mg/kg), and the injection solution prepared in Example 1 which contained radioactive arsenic trioxide having subjected to neutron irradiation treatment (radioactivity range: 2.77-3.25 mCi/ml; concentration: 1 mg/ml; and animal injection dosage: 0.45 mg/kg dose), were injected respectively via the hepatic artery in single injections.
as §2, with “injection” for “injection so as”

N1-S1 rat hepatoma cells [4] = test: Therapeutic effect assessment: liver tumor direct injection, rats with liver tumors; type: in vivo, Spawn-Dawley rats; design: key to Response: Increase in Size of tumor (In%) is classified as "Poor Response"; decrease in size of tumorwithin 0%∼40% is classified as "MildResponse"; decrease in size of tumor to 50% or more or disappearance of tumor is classified as "Good Response."; details: for Response / Survival time: 0.45 mg/kg direct into liver tumor, single animals
Description: as §1
The rats with liver tumors were subjected to surgery. After the locations of the liver tumors were found, the tumors were directly injected with normal saline, an injection containing arsenic trioxide without neutron irradiation treatment (concentration: 1 mg/ml; animal injection dosage: 0.45 mg/kg), and the injection prepared in Example 1 which contained radioactive arsenic trioxide having subjected to neutron irradiation treatment (radiation activity range: 2.77-3.25 mCi/ml; concentration: 1 mg/ml of concentration; and animal injection dosage: 0.45 mg/kg), respectively, once every week, twice in total.
as §2, with “injection” for “injection so as”

[5] = tested on: relapsed acute promyelocytic leukemia; details: cited from earlier work
liver tumor = details: 2 mg/kg for 10 consecutive days (Lin et al. 1999); cited from earlier work
[6] = tested on: human cervical cancer cells; details: in vitro and in vivo, cervical cancer (Yong-Jin Chun et al. 2002); cited from earlier work
[7] = 0.45 mg/kg hepatic artery single injection, single animals

radioactive arsenic trioxide
Radiation absorption dose, Intestine ([1]; IH (hepatic artery)): 0.23 mGy/MBq
Radiation absorption dose, Kidney ([1]; IH (hepatic artery)): 0.28 mGy/MBq
Radiation absorption dose, Liver ([1]; IH (hepatic artery)): 0.21 mGy/MBq
Radiation absorption dose, Lung ([1]; IH (hepatic artery)): 0.56 mGy/MBq
Radiation absorption dose, Muscle ([1]; IH (hepatic artery)): 0.12 mGy/MBq
Radiation absorption dose, Spleen ([1]; IH (hepatic artery)): 0.95 mGy/MBq
Radiation absorption dose, Tumor ([1]; IH (hepatic artery)): 21 mGy/MBq
Radiation absorption dose, Intestine ([1]; IV (tail vein)): 0.16 mGy/MBq
Radiation absorption dose, Kidney ([1]; IV (tail vein)): 0.25 mGy/MBq
Radiation absorption dose, Liver ([1]; IV (tail vein)): 0.13 mGy/MBq
Radiation absorption dose, Lung ([1]; IV (tail vein)): 0.47 mGy/MBq
Radiation absorption dose, Muscle ([1]; IV (tail vein)): 0.06 mGy/MBq
Radiation absorption dose, Spleen ([1]; IV (tail vein)): 0.76 mGy/MBq
Radiation absorption dose, Tumor ([1]; IV (tail vein)): 4.26 mGy/MBq
Contents of the radioactive arsenic trioxide in the heart, the lung, and the spleen ([1]; hepatic artery and tail vein injection, hours 2-48 (Figure 3)): 1-3 % ID/g
Response (N1-S1 rat hepatoma cells [2]): Good (decrease in size of tumor to 50% or more or disappearance of tumor is classified as "Good Response.")
Survival time (N1-S1 rat hepatoma cells [2]): >56 days
Effect on the inhibition of tumor growth (in words) (N1-S1 rat hepatoma cells [2]): most noticeable
Survival of the rats (in words) (N1-S1 rat hepatoma cells [2]): all alive in week 8
Response (N1-S1 rat hepatoma cells [3]; [7]): Good (decrease in size of tumor to 50% or more or disappearance of tumor is classified as "Good Response.")
Survival time (N1-S1 rat hepatoma cells [3]; [7]): >42 days
Tumor size After injection Week 2 (N1-S1 rat hepatoma cells [3]; [7]): Disappeared
Tumor size After injection Week 5 (N1-S1 rat hepatoma cells [3]; [7]): Disappeared
Therapeutic effect (in words) (N1-S1 rat hepatoma cells [3]): complete disappearance of the tumors in some of the animals 2 weeks after injection
Response (N1-S1 rat hepatoma cells [4]): Good (decrease in size of tumor to 50% or more or disappearance of tumor is classified as "Good Response.")
Survival time (N1-S1 rat hepatoma cells [4]): >30 days
Change of tumor size (in words) (N1-S1 rat hepatoma cells [4]; direct injection into the liver tumors, 4 weeks): the tumors in all of the animals shrank

S1[As]2S[As]3S[As]2S[As]13 [tetraarsenic tetraslfide]
complete remission rates ([5]; other arsenic-containing substances (Wang Z.Y. 2001)): 84.9%

arsenic trioxide [reference compound]
Response (N1-S1 rat hepatoma cells [2]): Poor (3×) and Mild (decrease in size of tumorwithin 0%∼40% is classified as "MildResponse") (2×)
Survival time (N1-S1 rat hepatoma cells [2]): 14 day (2×) and 42 day and 7 day and 40 day
Effect on the inhibition of tumor growth (in words) (N1-S1 rat hepatoma cells [2]): not significant
Survival of the rats (in words) (N1-S1 rat hepatoma cells [2]): still alive in week 8
Response (N1-S1 rat hepatoma cells [3]; [7]): Mild (decrease in size of tumorwithin 0%∼40% is classified as "MildResponse") (2×) and Poor (2×)
Survival time (N1-S1 rat hepatoma cells [3]; [7]): >42 day (2×) and 36 day and 39 day
Therapeutic effect (in words) (N1-S1 rat hepatoma cells [3]): not satisfactory
Response (N1-S1 rat hepatoma cells [4]): Poor and Good (decrease in size of tumor to 50% or more or disappearance of tumor is classified as "Good Response.") and Mild (decrease in size of tumorwithin 0%∼40% is classified as "MildResponse")
Survival time (N1-S1 rat hepatoma cells [4]): >30 days
Effect of combination with other drugs (in words) ([5]; combination with other drugs (such as GM-CSF), relapsed or ATRA resistant acute promyelocytic leukemia (Muto A et al. 2001)): synergistic therapeutic effect
complete remission (CR) rate ([5]; intravenously at a dose of 10 mg/d, relapsed acute promyelocytic leukemia (Shen Z.X. et al. 1997)): 90%
complete remission rate ([5]; low-dose, intravenously, daily dose of 0.08 mg/kg for 28 days (Shen Y et al. 2001)): 80%
life of the mice extended to (liver tumor): 127.2%
Effect of combined treatment with ionizing radiation (in words) [6]: synergistic effect

— EP1477174B1, “Radioactive arsenic-containing compounds and their uses in the treatment of tumors” (TTY Biopharm Company Limited, priority 2003, dated 2004)
